Source: patent US20230116114A1, “COMPOUNDS AND COMPOSITIONS FOR TREATING CNS DISORDERS” (Blue Oak Pharmaceuticals, Inc., priority 2020, published 2023)
Structures can show the parent of a compound that is named as a salt.

System: mice
Assay: SmartCube in vivo neuropharmacological behavioral assay
Settings: for minimal effective dose: Mus musculus, ip, 0.25 h, dose having 50% or more total activity in SmartCube, i.p., read-out: MED (minimal effective dose); for AD: antidepressant (percent probability) / AG: analgesic (percent probability) / AP: antipsychotic (percent probability) / AX: anxiolytic (percent probability) / CE: cognitive enhancer (percent probability) / HA: hallucinogenic (percent probability) / MS: mood stabilizer (percent probability) / PS (percent probability) / SD: sedative hypnotic (percent probability) / SE: side effects (percent probability) / UN: uncharacterized CNS activity (percent probability) / XG: anxiogenic (percent probability): SmartCube, i.p. 15 min before test, result at the MED
Description: The compounds were evaluated for their CNS related properties (e.g., the treatment, prevention or diagnosis of CNS or CNS-related disorders and/or amelioration of symptoms) using neuropharmacological screening methods described in S. L. Roberts et al., Front. Neurosci. 2011, 5:103 (hereinafter referred to as “Roberts,” the contents of which are incorporated herein by reference in their entirety).
According to Roberts, intact systems are useful in detecting improvement in disease-relevant endpoints, because psychiatric diseases generally result from disorders of cell-cell communication or circuitry. The endpoints are typically behavioral in nature, often requiring human observation and interpretation. In order to test multiple compounds for behavioral effects relevant to neurological and psychiatric diseases and disorders, PsychoGenics, Inc. (Paramus, N.J. “PGI”) developed SmartCube®, an automated system in which behaviors of compound-treated mice are captured by digital video and analyzed with computer algorithms to facilitate testing of multiple compounds for behavioral effects relevant to psychiatric disease. (D. Brunner et al., Drug Discov. Today 2002, 7:S107-S112; Alexandrov et al., Eur. J. Pharmacol. 2015, 753:127-134; the contents of each of which are incorporated herein by reference in their entirety).
The SmartCube® system is described in Example 2.2 of U.S. Pat. No. 9,758,529 and Example 289 of WIPO Publication No. WO2018/023070, the contents of each of which are incorporated herein by reference in their entirety.
According to the present disclosure, compounds identified may be evaluated using the SmartCube® system. The results of such analysis correlate certain patterns or combinations of behaviors to CNS effects along a percent probability scale of 0-100 where zero (0) reflects the limit of quantitation (LOQ).
The compounds of the present disclosure were evaluated for their CNS related properties (e.g., the treatment, prevention or diagnosis of CNS or CNS-related disorders and/or amelioration of symptoms) using neuropharmacological screening methods described in S. L. Roberts et al., Front. Neurosci. 2011, 5:103 (hereinafter referred to as “Roberts,” the contents of which are incorporated herein by reference in their entirety).
The SmartCube® system described herein was utilized to compare the behavioral signature of a test compound to a database of behavioral signatures obtained using a large set of diverse reference compounds (including but not limited to antipsychotics, anxiolytics, antidepressants and bipolar disorder medicine), thereby predicting the neuropharmacological effects of a test compound by similarity to major classes of compounds. It produces an activity signature indicating the probability that the activity of the test compound at the administered dose matches a given class of neuropharmacological agents. The test compound is simultaneously compared against multiple classes of agents; thus, a separate probability is generated for each behavioral effect measured (such as but not limited to anxiolytic activity and analgesic activity).
The compounds of the present disclosure were dissolved in a mixture of Pharmasolve™ (N-methyl-2-pyrrolidone (NMP)) and were injected i.p. 15 min. before the behavioral test. For each compound, injections were administered at different dose levels (e.g., 0.3, 1, 3, 10 and 30 mg per kg (mpk)). A compound's minimal effective dose (MED; see Table 3) is a measure of the compound's potency. The MED was defined as the dose (in mpk) having 50% or more total activity in SmartCube®. For each behavioral effect measured, results at the MED are presented. CNS activities of the compounds were recorded (see Table 2). In Table 1, a key to the percent probabilities (probability ×100) for each behavioral effect (“X”) are defined provided, where LOQ is the limit of quantification.

## CC(C)N1C2CCC(O)C1c1ccccc12 (centres unmarked) [Compound 27, 12-(propan-2-yl)-12-azatricyclo[6.3.1.0^2,7]dodeca-2,4,6-trien-9-ol hydrochloride]
  minimal effective dose: 10 to 30 mg/kg
  AD: antidepressant (percent probability): +++ (25% ≤ X < 50%)
  AG: analgesic (percent probability): ++ (5% ≤ X < 25%)
  AP: antipsychotic (percent probability): + (LOQ ≤ X < 5%)
  AX: anxiolytic (percent probability): ++ (5% ≤ X < 25%)
  CE: cognitive enhancer (percent probability): + (LOQ ≤ X < 5%)
  HA: hallucinogenic (percent probability): ++ (5% ≤ X < 25%)
  MS: mood stabilizer (percent probability): + (LOQ ≤ X < 5%)
  PS (percent probability): ++ (5% ≤ X < 25%)
  SD: sedative hypnotic (percent probability): + (LOQ ≤ X < 5%)
  SE: side effects (percent probability): + (LOQ ≤ X < 5%)
  UN: uncharacterized CNS activity (percent probability): + (LOQ ≤ X < 5%)
  XG: anxiogenic (percent probability): + (LOQ ≤ X < 5%)

## CC(C)N1[C@@H]2C[C@@H](C)C[C@H]1c1ccccc12 [Compound 31, 10-Methyl-12-(propan-2-yl)-12-azatricyclo[6.3.1.0^2,7]dodeca-2,4,6-triene hydrochloride]
  minimal effective dose: 1 to 10 mg/kg
  AD: antidepressant (percent probability): ++++ (50% ≤ X < 100%)
  AG: analgesic (percent probability): + (LOQ ≤ X < 5%)
  AP: antipsychotic (percent probability): + (LOQ ≤ X < 5%)
  AX: anxiolytic (percent probability): + (LOQ ≤ X < 5%)
  CE: cognitive enhancer (percent probability): + (LOQ ≤ X < 5%)
  HA: hallucinogenic (percent probability): ++ (5% ≤ X < 25%)
  MS: mood stabilizer (percent probability): + (LOQ ≤ X < 5%)
  PS (percent probability): ++ (5% ≤ X < 25%)
  SD: sedative hypnotic (percent probability): + (LOQ ≤ X < 5%)
  SE: side effects (percent probability): + (LOQ ≤ X < 5%)
  UN: uncharacterized CNS activity (percent probability): + (LOQ ≤ X < 5%)
  XG: anxiogenic (percent probability): + (LOQ ≤ X < 5%)

## CC(C1CC1)N1C2CCCC1c1ccccc12 (centres unmarked) [Compound 21, 12-(1-Cyclopropylethyl)-12-azatricyclo[6.3.1.0]dodeca-2,4,6-triene hydrochloride]
  minimal effective dose: 0.1 to 1 mg/kg
  AD: antidepressant (percent probability): +++ (25% ≤ X < 50%)
  AG: analgesic (percent probability): ++ (5% ≤ X < 25%)
  AP: antipsychotic (percent probability): + (LOQ ≤ X < 5%)
  AX: anxiolytic (percent probability): ++ (5% ≤ X < 25%)
  CE: cognitive enhancer (percent probability): + (LOQ ≤ X < 5%)
  HA: hallucinogenic (percent probability): + (LOQ ≤ X < 5%)
  MS: mood stabilizer (percent probability): + (LOQ ≤ X < 5%)
  PS (percent probability): + (LOQ ≤ X < 5%)
  SD: sedative hypnotic (percent probability): + (LOQ ≤ X < 5%)
  SE: side effects (percent probability): + (LOQ ≤ X < 5%)
  UN: uncharacterized CNS activity (percent probability): + (LOQ ≤ X < 5%)
  XG: anxiogenic (percent probability): + (LOQ ≤ X < 5%)

## CC(C)N1C2CC[C@H](C)C1c1ccccc12 (stereo in doubt) [Compound 33, 9-Methyl-12-(propan-2-yl)-12-azatricyclo[6.3.1.0^2,7]dodeca-2,4,6-triene hydrochloride]
  minimal effective dose: 1 to 10 mg/kg
  AD: antidepressant (percent probability): ++++ (50% ≤ X < 100%)
  AG: analgesic (percent probability): + (LOQ ≤ X < 5%)
  AP: antipsychotic (percent probability): + (LOQ ≤ X < 5%)
  AX: anxiolytic (percent probability): + (LOQ ≤ X < 5%)
  CE: cognitive enhancer (percent probability): + (LOQ ≤ X < 5%)
  HA: hallucinogenic (percent probability): + (LOQ ≤ X < 5%)
  MS: mood stabilizer (percent probability): + (LOQ ≤ X < 5%)
  PS (percent probability): + (LOQ ≤ X < 5%)
  SD: sedative hypnotic (percent probability): + (LOQ ≤ X < 5%)
  SE: side effects (percent probability): + (LOQ ≤ X < 5%)
  UN: uncharacterized CNS activity (percent probability): + (LOQ ≤ X < 5%)
  XG: anxiogenic (percent probability): + (LOQ ≤ X < 5%)

## CCN1C2CCCC1c1ccccc12 [Compound 6, 12-Ethyl-12-azatricyclo[6.3.1.0,]dodeca-2,4,6-triene hydrochloride]
  minimal effective dose: 10 to 30 mg/kg
  AD: antidepressant (percent probability): +++ (25% ≤ X < 50%)
  AG: analgesic (percent probability): ++ (5% ≤ X < 25%)
  AP: antipsychotic (percent probability): + (LOQ ≤ X < 5%)
  AX: anxiolytic (percent probability): ++ (5% ≤ X < 25%)
  CE: cognitive enhancer (percent probability): + (LOQ ≤ X < 5%)
  HA: hallucinogenic (percent probability): + (LOQ ≤ X < 5%)
  MS: mood stabilizer (percent probability): + (LOQ ≤ X < 5%)
  PS (percent probability): + (LOQ ≤ X < 5%)
  SD: sedative hypnotic (percent probability): + (LOQ ≤ X < 5%)
  SE: side effects (percent probability): + (LOQ ≤ X < 5%)
  UN: uncharacterized CNS activity (percent probability): + (LOQ ≤ X < 5%)
  XG: anxiogenic (percent probability): + (LOQ ≤ X < 5%)

## CCC(C)N1C2CC(C)CC1c1ccccc12 (centres unmarked) [Compound 37, 12-(Butan-2-yl)-10-methyl-12-azatricyclo[6.3.1.0^2,7]dodeca-2,4,6-triene hydrochloride]
  minimal effective dose: 1 to 10 mg/kg
  AD: antidepressant (percent probability): ++ (5% ≤ X < 25%)
  AG: analgesic (percent probability): ++ (5% ≤ X < 25%)
  AP: antipsychotic (percent probability): + (LOQ ≤ X < 5%)
  AX: anxiolytic (percent probability): +++ (25% ≤ X < 50%)
  CE: cognitive enhancer (percent probability): + (LOQ ≤ X < 5%)
  HA: hallucinogenic (percent probability): + (LOQ ≤ X < 5%)
  MS: mood stabilizer (percent probability): + (LOQ ≤ X < 5%)
  PS (percent probability): ++ (5% ≤ X < 25%)
  SD: sedative hypnotic (percent probability): + (LOQ ≤ X < 5%)
  SE: side effects (percent probability): + (LOQ ≤ X < 5%)
  UN: uncharacterized CNS activity (percent probability): + (LOQ ≤ X < 5%)
  XG: anxiogenic (percent probability): + (LOQ ≤ X < 5%)

## c1ccc2c(c1)CC(N1C3CCCC1c1ccccc13)C2 [Compound 11, 12-(2,3-Dihydro-1H-inden-2-yl)-12-azatricyclo[6.3.1.0^2,7]dodeca-2,4,6-triene hydrochloride]
  minimal effective dose: 10 to 30 mg/kg
  AD: antidepressant (percent probability): + (LOQ ≤ X < 5%)
  AG: analgesic (percent probability): ++ (5% ≤ X < 25%)
  AP: antipsychotic (percent probability): + (LOQ ≤ X < 5%)
  AX: anxiolytic (percent probability): ++ (5% ≤ X < 25%)
  CE: cognitive enhancer (percent probability): ++ (5% ≤ X < 25%)
  HA: hallucinogenic (percent probability): + (LOQ ≤ X < 5%)
  MS: mood stabilizer (percent probability): + (LOQ ≤ X < 5%)
  PS (percent probability): + (LOQ ≤ X < 5%)
  SD: sedative hypnotic (percent probability): + (LOQ ≤ X < 5%)
  SE: side effects (percent probability): + (LOQ ≤ X < 5%)
  UN: uncharacterized CNS activity (percent probability): +++ (25% ≤ X < 50%)
  XG: anxiogenic (percent probability): + (LOQ ≤ X < 5%)

## CCCC(C)N1C2CCCC1c1ccccc12 (centres unmarked) [Compound 16, 12-(Pentan-2-yl)-12-azatricyclo[6.3.1.0^20.7]dodeca-2,4,6-triene hydrochloride]
  minimal effective dose: 10 to 30 mg/kg
  AD: antidepressant (percent probability): +++ (25% ≤ X < 50%)
  AG: analgesic (percent probability): ++ (5% ≤ X < 25%)
  AP: antipsychotic (percent probability): + (LOQ ≤ X < 5%)
  AX: anxiolytic (percent probability): ++ (5% ≤ X < 25%)
  CE: cognitive enhancer (percent probability): + (LOQ ≤ X < 5%)
  HA: hallucinogenic (percent probability): ++ (5% ≤ X < 25%)
  MS: mood stabilizer (percent probability): + (LOQ ≤ X < 5%)
  PS (percent probability): + (LOQ ≤ X < 5%)
  SD: sedative hypnotic (percent probability): + (LOQ ≤ X < 5%)
  SE: side effects (percent probability): + (LOQ ≤ X < 5%)
  UN: uncharacterized CNS activity (percent probability): ++ (5% ≤ X < 25%)
  XG: anxiogenic (percent probability): + (LOQ ≤ X < 5%)
